The results in this text go back to patent publication US8513161B2, “Enhancement of plant growth” (Valent Biosciences Corporation, priority 2007, dated 2013).

Assay [1] has as its system cotton. Put plainly: Pouch assay of cotton after PESA salt and clothianidin seed treatments. Particulars: seed treatment; for shoot length of cotton: control 3.7; for root length of cotton: control 9.6. It counts as in vivo. The method, then:
(§1) Seed was sieved with a screen of hole size appropriate to remove broken seeds and small trash. Cracked or otherwise damaged seeds were removed. The seed was well mixed, and 50 g samples were weighed into small plastic trays. Seed treatment slurries were made by adding measured amounts of the active ingredients to sufficient water to bring them up to a standard volume, typically 2 ml. A fungicide (Maxim XL; Syngenta Agricultural Products, Greensboro, N.C.), a polymeric binder (CF-Clear; Becker-Underwood, Ames, Iowa), and a colorant (Color Coat Red; Becker-Underwood, Ames, Iowa) were also included in the slurry at label rates. A small aliquot of this slurry was applied to the seed using the Hege 11 coater (Wintersteiger, Salt Lake City, Utah) with a six-inch bowl. The slurry was deposited drop-wise on the spinning disk atomizer using a syringe.
(§2) Seeds were placed in germination pouches consisting of germination paper hydrated with sterile water that was an insert in a gas-permeable 16×14 cm plastic pouch (CYG Pouch; Mega International, St. Paul, Minn.). In these examples, in pouch solution evaluation, clothianidin and PESA sodium salt were added to the sterile water in the pouch. Alternatively, imidacloprid or dinotefuran and PESA sodium salt were added to the sterile water in the pouch. The pouches were arranged in a completely randomized block design in growth racks and placed in 19-liter polycarbonate food storage containers (Rubbermaid Commercial Products, Winchester, Va.). The sealed containers were held in an upright growth cabinet maintained at 25 C with a 12 hour light: 12 hour dark photoperiod. After 6 days, the containers were removed from the growth cabinet, and the lengths of the roots and shoot were measured.

In assay [2] the test system is maize. Put plainly: Field study, seed treatment of maize. It counts as in vivo, Zea mays. On the procedure: (§3) For the field studies, the seed was treated with a seed treatment formulation containing clothianidin. The rate of clothianidin was dependent on the crop species. The seed treatment formulations were amended with the appropriate concentrations of either PESA or the sodium salt of PESA. Crops were planted and grown under standard agricultural practices, and evaluated at the times indicated. The PESA or the sodium salt of PESA was prepared as described above, and was used in seed treatment either alone or in the presence of clothianidin. Maize (Zea mays) seed was treated with 0 or 0.25 milligrams of clothianidin/seed and with 0, 22, 55, or 137.5 grams PESA salt/100 kg seed.

In assay [3] the test system is soybean. Put plainly: Field study, seed treatment of soybean. It counts as in vivo. The method, then:
as §3, with “The” for “The PESA or the”, “Soybean” for “Maize (Zea mays)”, “50 grams” for “0.25 milligrams”, “clothianidin/100 kg (220 pound) of seed” for “clothianidin/seed”

Assay [4] deals with canola. Put plainly: Field study, seed treatment of canola. It counts as in vivo, Brassica napus. On the procedure: as §3, with “The” for “The PESA or the”, “Canola (Brassica napus)” for “Maize (Zea mays)”, “400 grams” for “0.25 milligrams”, “clothianidin/100 kg (220 pound) of seed” for “clothianidin/seed”
The subject of assay [5] is cotton. Put plainly: Continuous exposure pouch study, PESA salt and clothianidin on cotton. It counts as in vivo. On the procedure:
as §2

Assay [6] concerns sorghum. Put plainly: Field study, seed treatment of sorghum. It counts as in vivo. The method, then: as §3, with “The” for “The PESA or the”, “Sorghum” for “Maize (Zea mays)”, “200 grams” for “0.25 milligrams”, “clothianidin/100 kg (220 pound) of seed” for “clothianidin/seed”
The subject of assay [7] is rice. Put plainly: Pouch study of rice, imidacloprid seed treatment with PESA salt solution in pouch. It counts as in vivo. Particulars: for shoot length of rice: control 3.3; for root length of rice: control 10.7. On the procedure:
as §1, §2
Root lengths of the control and combination treatment of 200 grams imidacloprid/100 pounds of seed with 50 mg/liter PESA salt were similar.

The test system of assay [8] is cotton. Put plainly: Continuous exposure pouch study, PESA salt and imidacloprid on cotton. It counts as in vivo. The method, then: as §2, with “measured. […] Root lengths of the control and combination treatment of imidacloprid with 100 mg/liter PESA salt were similar.” for “measured.”
The mark [9] stands for this setting: clothianidin 182 g/100 pounds of seed alone.
The mark [10] stands for this setting: clothianidin 364 g/100 pounds of seed alone.
[11] abbreviates: imidacloprid 200 g/100 pounds of seed alone.
[12] abbreviates: imidacloprid 400 g/100 pounds of seed alone.
Where [13] appears, read: imidacloprid 800 g/100 pounds of seed alone.

In the case of `CN/C(=N\[N+](=O)[O-])NCc1cnc(Cl)s1` [Clothianidin, (E)-1-(2-chloro-1,3-thiazol-5-ylmethyl)-3-methyl-2-nitroguanidine, reference compound], the “effect on cotton shoot length” value is recorded as “increased cotton shoot length” in assay [1] (Table 2) and “not affected” in assay [5] (continuous exposure pouch, clothianidin alone). For the same compound, the “shoot length of cotton” value in assay [1] (setting [9]) was 4.1 cm; in assay [1] (setting [10]), 4.2 cm; in assay [5] (in pouch, clothianidin 1000 mg/liter alone, control 6.1), 6.1 cm. Moreover, the “root length of cotton” value in assay [1] (setting [9]) was determined as 7.8 cm; in assay [1] (setting [10]), 7.9 cm; in assay [5] (in pouch, clothianidin 1000 mg/liter alone, control 11.4) it was 8.9 cm. For the same compound, the “effect on cotton root length” value in assay [1] (clothianidin alone 182 or 364 g/100 pounds of seed) is given as “reduced cotton root length”; in assay [5] (continuous exposure pouch, substance alone), “decreased the length of the root”. In addition, the “vigor rating of maize plants, Vigor (1-5)” value in assay [2] (27 days after planting, clothianidin 0.25 mg/seed alone, control 3.6) was found to be 3.1. Also, the “effect on maize plant vigor” value in assay [2] (clothianidin alone, 0.25 mg/seed) was “reduced plant vigor as compared to the control”. Further, the “average plant height of soybean” value in assay [3] (66 days after planting, clothianidin 50 g/100 kg seed alone, control 23.8) is listed as 21.6 inches. For the same compound, the “effect on soybean plant height” value in assay [3] (clothianidin alone, 50 g/100 kg seed) is recorded as “reduced plant height as compared to the control”. Also, the “vigor rating (1 = low and 5 = high) of canola plants” value in assay [4] (19 days after planting, clothianidin 400 g/100 kg seed alone, control 3.8) is listed as 2.5. In addition, the “effect on canola plant vigor” value in assay [4] (clothianidin alone, 400 g/100 kg seed) was “reduced plant vigor as compared to the control”. The “root dry weight of a sample of 10 sorghum plants” value in assay [6] (73 days after planting, clothianidin 200 g/100 kg seed alone, control 148.5) worked out at 108.7 grams. The “effect on sorghum root dry weight” value in assay [6] (clothianidin alone, 200 g/100 kg seed) is reported as “reduced root dry weight as compared to the control”.
With `O=C(O)CCC(=O)NCCc1ccccc1` [PESA, N-(2-phenylethyl)succinamic acid], the “safening of maize” value in assay [2] (conclusion from Table 12) is reported as “safened maize against clothianidin-induced vigor reduction”.
As to `O=[N+]([O-])N=C1NCCN1Cc1ccc(Cl)nc1` [Imidacloprid, (EZ)-1-(6-chloro-3-pyridylmethyl)-N-nitroimidazolidin-2-ylideneamine], the “shoot length of rice” value came out at 3.6 cm in assay [7] (setting [11]), 3.3 cm in assay [7] (setting [12]) and 3.6 cm in assay [7] (setting [13]). For the same compound, the “root length of rice” value in assay [7] (setting [11]) is listed as 9.6 cm; in assay [7] (setting [12]), 8.9 cm; in assay [7] (setting [13]), 8.3 cm. For the same compound, the “effect on rice root length” value in assay [7] (seed treatment with imidacloprid alone) is “decreased the root length in a dose-dependent manner”. In assay [8] (continuous exposure pouch, imidacloprid 1000 mg/liter alone), the “effect on cotton root length” value was “decreased root length”. Moreover, the “effect on cotton shoot length” value in assay [8] (imidacloprid alone) was “not affected”. For the same compound, the “shoot length of cotton” value in assay [8] (in pouch, imidacloprid 1000 mg/liter alone, control 6.2) is on record as 6.0 cm. Besides, the “root length of cotton” value in assay [8] (in pouch, imidacloprid 1000 mg/liter alone, control 13.3) was 7.7 cm.
